From patent US6703420B1, “Amino-thio-acrylonitriles as MEK inhibitors” (Bristol-Myers Squibb Pharma Company, priority 1999, dated 2004)
Where two headings read alike, the source gives them in different places. Each block holds one compound with its values, some of them ahead of it.

Columns and labels:
T cell = conditions: in response to TCR engagement; cited from earlier work
b2 integrin = conditions: U0126 at 10 mM
Cox-2 [1] = system: Cox-2
MMP = conditions: IL-1b and TNF-a, fibroblasts; cited from earlier work
SMC = conditions: serum starved SMC
keratinocytes = keratinocytes stimulated with a variety of agents
activated MEK = conditions: cited from earlier work; for type of inhibition, comparative kinetic analysis: activated MEK
neutrophils [2] = conditions: U0126 at 10 mM; in response to IL-8 and LTB4
[3] = system: freshly isolated human monocytes and THP-1 cells
ERK [4] = conditions: PMA/ionomycin, Con A stimulation, antigen with costimulation; cited from earlier work
RAS-transformed cells [5] = system: RAS-transformed cells
ERK [6] = conditions: fMLP- and LTB4-stimulated
neutrophils [7] = system: neutrophils
keratinocyte = conditions: pituitary growth factor extract, primarily FGF
UM-SCC-1 cells = conditions: cited from earlier work
neutrophils [8] = conditions: in response to all agents (fMLP, IL-8, C5a, LTB4); cited from earlier work
[9] = system: neutrophils, mast cells, or endothelial cells; conditions: opsonized zymosan, aggregation of high affinity IgG receptor, or thrombin, respectively; cited from earlier work
neutrophils [10] = conditions: cited from earlier work
monocytes = conditions: LPS treatment of monocytes; cited from earlier work
T cells = conditions: cited from earlier work
UM-SCC-1 and MDA-TV-138 = conditions: controlled by EGF, TGFa and FGF; cited from earlier work
Cox-2 [11] = conditions: LPA-stimulated rat mesangial cells; cited from earlier work
ERK [12] = conditions: agonists fMLP, IL-8, C5a and LTB4; cited from earlier work
5-lipoxygenase = conditions: HL-60 cells; cited from earlier work
RAS-transformed cells [13] = conditions: cited from earlier work
Swiss 3T3 cells = conditions: PDGF-stimulated Swiss 3T3 cells; cited from earlier work
Cox-2 [14] = conditions: RAW 264.7 cells; cited from earlier work
SMC (Smooth Muscle Cell) = conditions: at concentrations which inhibit ERK activation; cited from earlier work
HL-60 cells = conditions: cited from earlier work

melting point: 146.5 to 147.5 °C
SMILES: N#CC(=C(N)Sc1ccc(N)cc1)c1cccc(C(O)c2ccncc2)c1 (centres unmarked)

melting point: 63.5 to 72 °C
SMILES: Cc1ccccc1C(C(C#N)=C(N)Sc1ccccc1N)c1ccc(Cl)cc1 (centres unmarked)

SMILES: N#CC(=C(/N)Sc1ccccc1N)/C(C#N)=C(\N)Sc1ccccc1N [Example U0126]
IL-2 synthesis (T cell): blocked
T cell activation and proliferation (T cell): blocked
blunting of up regulation of b2 integrin on the cell surface (b2 integrin): 50%
growth of human tumor cell lines in soft agar (human tumor cell lines): can prevent cell growth in some cells, but not all
Cox-2 induction (Cox-2 [1]; TPA-stimulated fibroblasts): inhibits Cox-2 induction
serum induction of the Cox-2 transcript (Cox-2 [1]; fibroblasts, serum): does not impede serum induction of the Cox-2 transcript
MMP induction (MMP): block MMP induction
PDGF-dependent growth (SMC): prevents PDGF-dependent growth
arachidonic acid release (keratinocytes): block arachidonic acid release
prostaglandin and leukotriene synthesis (keratinocytes): block
type of inhibition, comparative kinetic analysis (activated MEK): non-competitive inhibitors of activated MEK
block of chemotaxis through a fibrin gel (neutrophils [2]): > 80%
LPS-induced cytokine production [3]: inhibitable
ERK activation in T cells (ERK [4]): prevents ERK activation
cell growth under normal culture conditions (RAS-transformed cells [5]; normal culture conditions): minimal effects on cell growth
growth of RAS-transformed cells in soft agar (RAS-transformed cells [5]; soft agar): impede the growth
ERK activation in neutrophils (ERK [6]): blocks ERK activation
NADPH-oxidase activity (neutrophils [7]): does not impair NADPH-oxidase activity
bacterial cell killing (neutrophils [7]): does not impair
keratinocyte proliferation (keratinocyte): blocks keratinocyte proliferation

SMILES: COc1cccc(-c2cc(=O)c3ccccc3o2)c1N [PD 098059]
cellular proliferation rate (UM-SCC-1 cells): not affected
in vitro invasiveness through an extracellular matrix-coated porous filter (UM-SCC-1 cells): blocked
neutrophil chemotaxis (neutrophils [8]): blocks neutrophil chemotaxis
arachidonic acid release [9]: blocks arachidonic acid release
superoxide anion production (neutrophils [10]): does not alter superoxide anion production
cytokine production (monocytes): blocked
IL-2 production (T cells; anti-CD3 antibody with anti-CD28 or PMA): blocked IL-2 production
T cell proliferation (T cells; anti-CD3 antibody, reversed by IL-2): inhibit T cell proliferation
production of IL-4, IL-5 and IL-13 (T cells; similarly stimulated T cell cultures): enhanced production
TNFa, IL-3 GM-CSF, IFN-g, IL-6 and IL-10 production (T cells; stimulated T cells): blocked
urokinase secretion (UM-SCC-1 and MDA-TV-138): reduce urokinase secretion
type of inhibition, comparative kinetic analysis (activated MEK): non-competitive inhibitors of activated MEK
MEK activity (activated MEK): inhibits MEK activity
Cox-2 induction (Cox-2 [11]): inhibits Cox-2 induction
ERK activation in neutrophils (ERK [12]): blocked
5-lipoxygenase translocation from cytosol to nuclear membrane and activation (5-HETE production) (5-lipoxygenase): inhibited
cell growth under normal culture conditions (RAS-transformed cells [13]; normal culture conditions): minimal effects on cell growth
growth of RAS-transformed cells in soft agar (RAS-transformed cells [13]; soft agar): impede the growth
thymidine incorporation into DNA (Swiss 3T3 cells): blocks thymidine incorporation into DNA
LPS-induced Cox-2 expression (Cox-2 [14]): partially blocked
PDGF-BB-dependent SMC chemotaxis (SMC (Smooth Muscle Cell)): prevents PDGF-BB-dependent SMC (Smooth Muscle Cell) chemotaxis
fMLP-stimulated superoxide generation (HL-60 cells): inhibited
